In patent publication US20070219224A1, “Compositions and Methods Relating to Pyrimidine Synthesis Inhibitors” (UAB RESEARCH FOUNDATION, THE, priority 2004, published 2007):
“Also recorded” adds a separate entry of the source. Marks after values point to notes of the source that are not given here.

What was measured:
RSV-infected BALB/c mice [1] = assay: Alveolar fluid clearance (AFC) in RSV-infected mice at day 2 p.i.; assay type: in vivo; settings: for effect on RSV-mediated inhibition of AFC at day 2 p.i. (in words): added to the AFC instillate
Experimental: Preparation of viral inocula and infection of mice. […] J. Physiol. Lung Cell Mol. Physiol. […] Data for each experimental group was derived from a minimum of 2 independent infections.
(§1) Systemic inhibition of de novo pyrimidine and purine synthesis. Leflunomide (5-methylisoxazole-4-[4-trifluoromethyl]carboxanilide, 35 mg/kg in distilled water containing 1% methylcellulose) was administered once daily by oral gavage in a volume of 300 μl/mouse for 8 days prior to infection, then throughout the infection period. Vehicle controls were gavaged with an equivalent volume of 1% methylcellulose in distilled water.
To systemically block de novo pyrimidine synthesis, mice were gavaged once daily for 8 days with […] of the dihydro-orotate reductase (DHOR) inhibitor leflunomide ([…] suspended in 1% methylcellulose) or vehicle prior to infection, then at 0 and 24 hours p.i. AFC studies were performed at 48 hours p.i., with no additions to the AFC instillate.
(§2) AFC studies were performed on anesthetized, ventilated BALB/c mice with normal body temperature and blood gases, over a 30 minute period after intratracheal instillation of 0.3 ml of isosmolar NaCl containing 5% fatty acid-free BSA. The number of mice analyzed per group is listed in the relevant bar of each graph.

[2] = system: IFN-α, IL-1β, KC, TNF-α in BALF; assay: Measurement of proinflammatory cytokines in BALF (ELISA); assay type: in vivo, BALB/c mice; settings: RSV-infected mice, d2
Experimental: (§3) Preparation of viral inocula and infection of mice. Preparation of viral stocks and intranasal infection of eight to twelve week-old pathogen-free BALB/c mice of either sex with RSV strain A2 (10^6 PFU in 100 μl) were performed as described in Davis et al., “Nucleotide-mediated inhibition of alveolar fluid clearance in BALB/c mice after respiratory syncytial virus infection,” Am. J. Physiol. Lung Cell Mol. Physiol. 286:L112-L120. (2004). Data for each experimental group was derived from a minimum of 2 independent infections.
Bronchoalveolar lavage. Bronchoalveolar lavage fluid (BALF) was collected as previously described in Davis et al., (2004), using 1 ml of sterile normal saline for cytokine ELISAs, or 0.3 ml of sterile saline for nucleotide assays. Lavagates were centrifuged to remove cells and supernatants stored at −80° C.
as §1, with “water. […].” for “water.”
Measurement of proinflammatory cytokines in BALF. Cytokine levels were determined using Quantikine M ELISA kits (R & D Systems), in accordance with manufacturer's instructions.

[3] = assay type: in vivo
Experimental: as §3
as §1, with “water. […]” for “water.”

RSV-infected BALB/c mice [4] = assay: Lung water content (wet:dry weight ratio) after RSV infection; assay type: in vivo
Experimental: as §3
as §1, with “water. […]” for “water.”

RSV strain A2 = assay: RSV replication in mouse lungs; assay type: in vivo, Respiratory syncytial virus; settings: RSV-infected mice, day 2 p.i.; systemic treatment
Experimental: as §3
as §1, with “water. […]” for “water.”

uninfected BALB/c mice = assay: Alveolar fluid clearance (AFC) in uninfected or mock-infected mice; assay type: in vivo; settings: uninfected mice
Experimental: Systemic inhibition of de novo pyrimidine and purine synthesis. […] Vehicle controls were gavaged with an equivalent volume of 1% methylcellulose in distilled water. Uridine (1 g/kg in 0.9% NaCl) was administered by i.p. injection every 12 hours in a volume of 100 μl (8). […]
as §2

[5] = RSV-infected mice, day 2 p.i., final concentration 25 μM (Table 6)

## Sc1ncnc2nc[nH]c12 [6-MP, 6-mercaptopurine]
RSV-infected BALB/c mice [1]; [5]
  AFC30BASAL (mean % basal AFC after 30 minutes ± SE): 26.31 ± 1.85 %
RSV-infected BALB/c mice [1]
  effect on RSV-mediated inhibition of AFC at day 2 p.i. (in words): only a minor effect
RSV-infected BALB/c mice [1]; listed as 6-mercaptopurine
  effect on RSV-mediated inhibition of AFC at day 2 p.i. (in words): not and only a small blocking effect
RSV-infected BALB/c mice [1]; systemic treatment (leflunomide oral gavage; uridine, 6-MP i.p.)
  effect on RSV-mediated inhibition of AFC at d2 (in words): no effect on AFC
[2]
  BALF proinflammatory cytokine levels (IFN-α, IL-1β, KC, TNF-α) (in words): comparable decline
[2]; systemic treatment
  IFN-α, mean cytokine concentration in BALF ± SE: 105 ± 14 pg/mL
  IL-1β, mean cytokine concentration in BALF ± SE: 9 ± 3 pg/mL
  KC, mean cytokine concentration in BALF ± SE: 329 ± 63 pg/mL
  TNF-α, mean cytokine concentration in BALF ± SE: 0*** pg/ml
[3]; 6-MP 35 mg/kg i.p. every 24 hours
  tolerance to anesthesia: poor tolerance to anesthesia (resulting in sporadic deaths)
[3]; D1 and d2 p.i., versus untreated RSV-infected mice
  body weight loss after RSV infection: significant increase in body weight loss
[3]; before RSV infection, leflunomide 8 days, 6-MP 5 days
  body weight during the pretreatment (preinfection) period: significant loss of body weight
RSV-infected BALB/c mice [4]; day 2, systemic treatment
  lung water content (wet:dry weight ratio) (in words): did not alter lung wet:dry weight ratios
RSV strain A2
  virus replication in lung tissue at d2: no significant inhibitory effect

## C/C(O)=C(\C#N)C(=O)Nc1ccc(C(F)(F)F)cc1 [A77-1726]
RSV-infected BALB/c mice [1]; 50 μM in 100 μl normal saline intranasally at 24 hours p.i.
  effect on RSV-induced inhibition of AFC, intranasal treatment (in words): completely blocked
RSV-infected BALB/c mice [1]; RSV day 2 p.i., 50 μM in 100 μl normal saline intranasally 24 hours after infection
  AFC30BASAL (mean % basal AFC after 30 minutes ± SE): 32.68 ± 1.1 %
RSV-infected BALB/c mice [1]; [5]
  AFC30BASAL (mean % basal AFC after 30 minutes ± SE): 34.06 ± 1.88 %
RSV-infected BALB/c mice [1]
  effect on RSV-mediated inhibition of AFC at day 2 p.i. (in words): prevented; also recorded: reverses RSV-mediated inhibition of AFC
Uninfected BALB/c mice; 50 μM in 100 μl normal saline intranasally 24 hours prior to AFC assay
  AFC30BASAL (mean % basal AFC after 30 minutes ± SE): 23.19 ± 5.95 %
RSV-infected BALB/c mice [4]; A77-1726 intranasal
  lung wet:dry weight ratios, intranasal treatment: normalization of lung wet:dry weight ratios

## N=C(N)NC(=O)c1nc(Cl)c(N)nc1N [AMIL, amiloride]
RSV-infected BALB/c mice [1]; RSV-infected mice, d2, 1.5 mM amiloride added to the instillate
  AFC (mean % AFC ± SE) with amiloride in instillate: 22.82 ± 1.92%
Uninfected BALB/c mice; 1.5 mM amiloride added to the instillate
  AFC (mean % AFC ± SE) with amiloride in instillate: 14.65 ± 1.59 %

## CCN(CC)CCOc1ccc(C(=C(Cl)c2ccccc2)c2ccccc2)cc1 [Clomiphene]
RSV-infected BALB/c mice [1]; RSV-infected mice, d2, inhibitor 20 μM in AFC instillate (Table 5)
  AFC (mean % AFC ± SE): 31.05 ± 2.65 %
RSV-infected BALB/c mice [1]; RSV-infected mice, day 2 p.i., final concentration 20 μM (Table 6)
  AFC30BASAL (mean % basal AFC after 30 minutes ± SE): 31.0 ± 2.67 %
RSV-infected BALB/c mice [1]
  effect on RSV-mediated inhibition of AFC at day 2 p.i. (in words): blocked

## CNCCC(Oc1ccc(C(F)(F)F)cc1)c1ccccc1 (centres unmarked) [Fluoxetine]
RSV-infected BALB/c mice [1]; RSV-infected mice, d2, inhibitor 10 μM in AFC instillate (Table 5)
  AFC (mean % AFC ± SE): 34.54 ± 0.79 %
RSV-infected BALB/c mice [1]; RSV-infected mice, day 2 p.i., final concentration 10 μM (Table 6)
  AFC30BASAL (mean % basal AFC after 30 minutes ± SE): 34.54 ± 0.79 %
RSV-infected BALB/c mice [1]
  effect on RSV-mediated inhibition of AFC at day 2 p.i. (in words): blocked RSV-mediated inhibition of AFC

## O=c1c(-c2ccc(O)cc2)coc2cc(O)cc(O)c12 [Genistein]
RSV-infected BALB/c mice [1]; [5]
  AFC30BASAL (mean % basal AFC after 30 minutes ± SE): 20.39 ± 0.73%
RSV-infected BALB/c mice [1]
  effect on RSV-mediated inhibition of AFC at day 2 p.i. (in words): not recapitulated; also recorded: not replicated

## COc1ccc(Cl)cc1C(=O)NCCc1ccc(S(=O)(=O)NC(=O)NC2CCCCC2)cc1 [Glibenclamide]
RSV-infected BALB/c mice [1]; RSV-infected mice, d2, inhibitor 100 μM in AFC instillate (Table 5)
  AFC (mean % AFC ± SE): 24.24 ± 4.24%
RSV-infected BALB/c mice [1]
  effect on RSV-mediated inhibition of AFC at day 2 p.i. (in words): unaffected

## COc1c(C)c2c(c(O)c1C/C=C(\C)CCC(=O)O)C(=O)OC2 [MPA, mycophenolic acid]
RSV-infected BALB/c mice [1]; [5]
  AFC30BASAL (mean % basal AFC after 30 minutes ± SE): 26.2 ± 1.7 %
RSV-infected BALB/c mice [1]
  effect on RSV-mediated inhibition of AFC at day 2 p.i. (in words): only a minor effect
RSV-infected BALB/c mice [1]; listed as mycophenolic acid
  effect on RSV-mediated inhibition of AFC at day 2 p.i. (in words): not and only a small blocking effect
